Drawing on ChEMBL document CHEMBL5214929, “Updated chemical scaffolds of ABCG2 inhibitors and their structure-inhibition relationships for future development” (Eur J Med Chem, 2022), this text covers EC90 and IC50 for 16 compounds.

Assay [1] can be described thus: Reversal of mitoxantrone resistance in human T8 cells. Format: functional. The settings on record: T8 cell.
The test system of assay [2] is HEK293. Nature of the assay: Cytotoxicity against HEK293 cells expressing ABCG2-R-482 mutant assessed as decrease in mitoxantrone half inhibitory concentration. The class given is functional, cell-based. The settings on record: Homo sapiens.
Assay [3] deals with HEK293. Nature of the assay: Cytotoxicity against HEK293 cells expressing ABCG2-R-482 wildtype assessed as decrease in mitoxantrone half inhibitory concentration. The class given is functional, cell-based. The conditions noted are these: Homo sapiens.
In assay [4] the test system is HEK293. Nature of the assay: Cytotoxicity against HEK293 cells expressing ABCG2-482-R in presence of methotrexate. Format: functional, cell-based. The settings on record: Homo sapiens.
For assay [5], the system named is HEK293. The experiment in a line: Cytotoxicity against HEK293 cells expressing ABCG2-482-T7 in presence of methotrexate. Format: functional, cell-based. The conditions noted are these: Homo sapiens.
The subject of assay [6] is HEK293. The experiment in a line: Cytotoxicity against HEK293 cells expressing ABCG2 in presence of methotrexate. Format: functional, cell-based. The settings on record: Homo sapiens.
In assay [7] the target is T1, Broad substrate specificity ATP-binding cassette transporter ABCG2 (Homo sapiens, UniProt Q9UNQ0).
T1 sequence (Q9UNQ0 whole entry): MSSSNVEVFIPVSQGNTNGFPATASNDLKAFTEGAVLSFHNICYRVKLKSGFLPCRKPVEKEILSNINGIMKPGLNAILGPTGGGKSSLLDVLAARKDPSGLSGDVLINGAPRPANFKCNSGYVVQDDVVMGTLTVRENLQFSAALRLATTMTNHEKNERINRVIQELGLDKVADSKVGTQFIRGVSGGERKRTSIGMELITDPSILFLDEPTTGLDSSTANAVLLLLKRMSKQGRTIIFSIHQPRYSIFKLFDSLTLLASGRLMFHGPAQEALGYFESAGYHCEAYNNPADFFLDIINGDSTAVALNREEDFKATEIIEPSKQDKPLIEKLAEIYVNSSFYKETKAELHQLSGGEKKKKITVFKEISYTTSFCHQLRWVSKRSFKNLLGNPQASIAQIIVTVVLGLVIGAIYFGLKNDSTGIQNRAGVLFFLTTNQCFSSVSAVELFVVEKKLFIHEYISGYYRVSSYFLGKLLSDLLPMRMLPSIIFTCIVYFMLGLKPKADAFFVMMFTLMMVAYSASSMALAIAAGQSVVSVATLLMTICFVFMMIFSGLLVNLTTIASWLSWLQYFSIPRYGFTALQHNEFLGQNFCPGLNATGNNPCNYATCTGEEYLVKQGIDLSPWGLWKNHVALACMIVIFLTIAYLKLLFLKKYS
Nature of the assay: Inhibition of ABCG2 (unknown origin) in Sf9 membrane vesicles using [3H] methotrexate as substrate. Format: cell membranes.

For assay [8], the system named is HEK293. The experiment in a line: Cytotoxicity against HEK293 cells expressing ABCG2-R-482 in presence of methotrexate. The class given is functional, cell-based. The settings on record: Homo sapiens.
In assay [9] the target is T1, Broad substrate specificity ATP-binding cassette transporter ABCG2. The experiment in a line: Inhibition of ABCG2 (unknown origin).
The subject of assay [10] is S1-M1-80. Nature of the assay: Cytotoxicity against human S1M180 cells in presence of topotecan. The class given is functional, cell-based.
The test system of assay [11] is MCF7. The experiment in a line: Cytotoxicity against human MCF7 cells assessed as increase in cytotoxic drug half inhibitory concentration. The class given is functional, cell-based.
The target of assay [12] is T1, Broad substrate specificity ATP-binding cassette transporter ABCG2. The experiment in a line: Inhibition of ABCG2 (unknown origin) overexpressing in dog MDCK-II-BCRP cells measured after 30 mins by flow cytometric analysis. The class given is cell-based.

For the compound `CC(C)C[C@@H]1c2[nH]c3ccccc3c2C[C@H]2C(=O)N[C@H](CCCCNC(=O)OC(C)(C)C)C(=O)N12`, the EC90 in assay [1] came out at 190 nM.

As to `Cc1[nH]c(/C=C2\C(=O)Nc3ccc(F)cc32)c(C)c1C(=O)N[C@H]1CCN(C(=O)N(C)C)C1` [VOROLANIB], the half-maximal inhibitory concentration (IC50) in [2] came out at 58 nM; in [3] it was 15.5 nM. Turning to `COc1cc2nccc(Oc3ccc(NC(=O)C4(C(=O)Nc5ccc(F)cc5)CC4)cc3)c2cc1OC` [CABOZANTINIB], the IC50 was determined as 27 nM in assay [4] and 34 nM in assay [5]. Consider `C=CC(=O)Nc1cccc(Nc2nc(Nc3ccc(N4CCN(C(C)=O)CC4)cc3OC)ncc2C(F)(F)F)c1` [ROCILETINIB], for which the half-inhibitory concentration (IC50) was 11.9 nM in [4] and 7.2 nM in assay [5]. Take `Cc1cn(-c2cc(NC(=O)c3ccc(C)c(Nc4nccc(-c5cccnc5)n4)c3)cc(C(F)(F)F)c2)cn1` [NILOTINIB]: the 50% inhibitory concentration (IC50) was 128 nM in [4] and 147 nM in assay [5]. In the case of `COc1cc2c(cc1OC)CN(CCc1ccc(NC(=O)c3cccc4c(=O)c5cccc(OC)c5[nH]c34)cc1)CC2` [ELACRIDAR], in [1], the concentration for an effect of 90% (EC90) was 51 nM. For `COc1cc2ncnc(Nc3ccc(F)c(Cl)c3)c2cc1NC(=O)/C=C/CN1CCCCC1` [DACOMITINIB ANHYDROUS], the 50% inhibitory concentration (IC50) in assay [6] was determined as 185 nM. In [7], `C=CC(O)C#CC#CC(O)/C=C\CCCCCCC` (stereo not given) had an IC50 of 29.7 µM. With `Nc1ncnc2c1c(-c1ccc(Oc3ccccc3)cc1)nn2C1CCCC1`, the half-inhibitory concentration (IC50) in [8] stood at 57 nM. For `Cn1cc(-c2cc3c(N4CCN(c5ncc([C@@](C)(N)c6ccc(F)cc6)cn5)CC4)ncnn3c2)cn1` [AVAPRITINIB], the IC50 in [9] was found to be 1.5 nM. On to `CC(C)C[C@@H]1c2[nH]c3ccccc3c2C[C@H]2C(=O)N[C@H](CCC(=O)OC(C)(C)C)C(=O)N12`, for which the 90% effect concentration (EC90) in assay [1] amounted to 85 nM. As to `COc1ccc2c3c([nH]c2c1)[C@@H](CC(C)C)N1C(=O)[C@@H](CCC(=O)OC(C)(C)C)NC(=O)[C@@H]1C3`, the concentration for an effect of 90% (EC90) in assay [1] came out at 23 nM. As to `COc1cc2/c(=N/c3ccc(Br)cc3F)nc[nH]c2cc1OCC1CCN(C)CC1` [VANDETANIB], the IC50 in assay [10] worked out at 1240 nM. For `C=CC(O)C#CC#CC/C=C\CCCCCCC` (stereo not given), the IC50 in assay [7] was 41.7 µM.

Regarding `COc1ccc2c3c([nH]c2c1)[C@@H](C=C(C)C)N1C(=O)[C@@H]2CCCN2C(=O)[C@@H]1C3`, in assay [11], the half-maximal inhibitory concentration (IC50) came to 1000 nM. In assay [12], `COc1ccc(-c2c3occc3c(OC[C@H]3OC3(C)C)c3ccc(=O)oc23)cc1OC` registered a concentration for half-maximal inhibition (IC50) of 43.1 µM.

Usually EC90 stands for the concentration at which the effect reaches the 90% level. A word on the IC50: it is the concentration that inhibits the measured activity by half.
